{"source": "patent US4161520A", "about": "“Method of treating hypertension” (priority 1976, dated 1979)", "system": "spontaneous hypertensive (SH) rat", "experiment": "Effects on blood pressure in the spontaneous hypertensive (SH) rat (Example 2, Table II)", "assay_type": "in vivo", "description": "Test conducted for effects on blood pressure in the spontaneous hypertensive (SH) rat.\nTwelve week old spontaneous hypertensive male rats (Okomoto strain) are used as a model in the antihypertensive test.\nSystolic blood pressure is measured indirectly from the tail of unanesthetized rats using a pneumatic pulse transducer. Control readings are taken prior to drug administration and post drug readings are taken at 1, 3, 6 and 24 hours.\nDrug-related alteration in systolic blood pressure is expressed as percentage change by comparing control absolute values with post drug absolute values.\nThe results are expressed as absolute values and percent changes from controls.\nCompounds are considered active when about a 15% or greater reduction in blood pressure is obtained. However, the reduction in blood pressure must show mathematical significance ([…]). The compound was administered for a five-day period by intubation and thereafter dosing was discontinued but blood pressure monitoring was continued.", "data": [{"compound": "CC[C@@H](C(=O)[C@@H](C)[C@@H](O)[C@H](C)CCc1c(Br)cc(C)c(O)c1C(=O)O)[C@H]1O[C@](CC)([C@H]2CC[C@](O)(CC)[C@H](C)O2)C[C@@H]1C", "note": "[bromolasalocid]", "values": [{"measurement": "Average Systolic Blood Pressure Per Group", "setting": "10 mg/kg per day for 5 days, Day 1 pm, pre-drug 227, p<.05", "value": 211, "unit": "mmHg"}, {"measurement": "Average Systolic Blood Pressure Per Group", "setting": "10 mg/kg per day for 5 days, Day 2 am, pre-drug 227", "value": 215, "unit": "mmHg"}, {"measurement": "Average Systolic Blood Pressure Per Group", "setting": "10 mg/kg per day for 5 days, Day 2 pm, pre-drug 227", "value": 217, "unit": "mmHg"}, {"measurement": "Average Systolic Blood Pressure Per Group", "setting": "10 mg/kg per day for 5 days, Day 3 am, pre-drug 227, p<.05", "value": 203, "unit": "mmHg"}, {"measurement": "Average Systolic Blood Pressure Per Group", "setting": "10 mg/kg per day for 5 days, Day 3 pm, pre-drug 227, p<.05", "value": 199, "unit": "mmHg"}, {"measurement": "Average Systolic Blood Pressure Per Group", "setting": "10 mg/kg per day for 5 days, Day 4 am, pre-drug 227, p<.05", "value": 193, "unit": "mmHg"}, {"measurement": "Average Systolic Blood Pressure Per Group", "setting": "10 mg/kg per day for 5 days, Day 4 pm, pre-drug 227, p<.05", "value": 198, "unit": "mmHg"}, {"measurement": "Average Systolic Blood Pressure Per Group", "setting": "10 mg/kg per day for 5 days, Day 5 am, pre-drug 227, p<.05", "value": 200, "unit": "mmHg"}, {"measurement": "Average Systolic Blood Pressure Per Group", "setting": "10 mg/kg per day for 5 days, Day 5 pm, pre-drug 227, p<.05", "value": 209, "unit": "mmHg"}, {"measurement": "Average Systolic Blood Pressure Per Group", "setting": "10 mg/kg per day for 5 days, Day 8 am, pre-drug 227, p<.05", "value": 199, "unit": "mmHg"}, {"measurement": "Average Systolic Blood Pressure Per Group", "setting": "20 mg/kg per day for 5 days, Day 1 pm, pre-drug 211", "value": 201, "unit": "mmHg"}, {"measurement": "Average Systolic Blood Pressure Per Group", "setting": "20 mg/kg per day for 5 days, Day 2 am, pre-drug 211", "value": 209, "unit": "mmHg"}, {"measurement": "Average Systolic Blood Pressure Per Group", "setting": "20 mg/kg per day for 5 days, Day 2 pm, pre-drug 211", "value": 200, "unit": "mmHg"}, {"measurement": "Average Systolic Blood Pressure Per Group", "setting": "20 mg/kg per day for 5 days, Day 3 am, pre-drug 211", "value": 214, "unit": "mmHg"}, {"measurement": "Average Systolic Blood Pressure Per Group", "setting": "20 mg/kg per day for 5 days, Day 3 pm, pre-drug 211", "value": 209, "unit": "mmHg"}, {"measurement": "Average Systolic Blood Pressure Per Group", "setting": "20 mg/kg per day for 5 days, Day 4 am, pre-drug 211", "value": 205, "unit": "mmHg"}, {"measurement": "Average Systolic Blood Pressure Per Group", "setting": "20 mg/kg per day for 5 days, Day 4 pm, pre-drug 211", "value": 204, "unit": "mmHg"}, {"measurement": "Average Systolic Blood Pressure Per Group", "setting": "20 mg/kg per day for 5 days, Day 5 am, pre-drug 211", "value": 210, "unit": "mmHg"}, {"measurement": "Average Systolic Blood Pressure Per Group", "setting": "20 mg/kg per day for 5 days, Day 5 pm, pre-drug 211, p<.05", "value": 187, "unit": "mmHg"}, {"measurement": "Average Systolic Blood Pressure Per Group", "setting": "20 mg/kg per day for 5 days, Day 8 am, pre-drug 211", "value": 210, "unit": "mmHg"}, {"measurement": "Average Systolic Blood Pressure Per Group", "setting": "50 mg/kg per day for 5 days, Day 1 pm, pre-drug 215", "value": 208, "unit": "mmHg"}, {"measurement": "Average Systolic Blood Pressure Per Group", "setting": "50 mg/kg per day for 5 days, Day 2 am, pre-drug 215, p<.05", "value": 193, "unit": "mmHg"}, {"measurement": "Average Systolic Blood Pressure Per Group", "setting": "50 mg/kg per day for 5 days, Day 2 pm, pre-drug 215, p<.05", "value": 176, "unit": "mmHg"}, {"measurement": "Average Systolic Blood Pressure Per Group", "setting": "50 mg/kg per day for 5 days, Day 3 am, pre-drug 215, p<.05", "value": 175, "unit": "mmHg"}, {"measurement": "Average Systolic Blood Pressure Per Group", "setting": "50 mg/kg per day for 5 days, Day 3 pm, pre-drug 215, p<.05", "value": 160, "unit": "mmHg"}, {"measurement": "Average Systolic Blood Pressure Per Group", "setting": "50 mg/kg per day for 5 days, Day 4 am, pre-drug 215, p<.05", "value": 183, "unit": "mmHg"}, {"measurement": "Average Systolic Blood Pressure Per Group", "setting": "50 mg/kg per day for 5 days, Day 4 pm, pre-drug 215, p<.05", "value": 169, "unit": "mmHg"}, {"measurement": "Average Systolic Blood Pressure Per Group", "setting": "50 mg/kg per day for 5 days, Day 5 am, pre-drug 215, p<.05", "value": 184, "unit": "mmHg"}, {"measurement": "Average Systolic Blood Pressure Per Group", "setting": "50 mg/kg per day for 5 days, Day 5 pm, pre-drug 215, p<.05", "value": 167, "unit": "mmHg"}, {"measurement": "Average Systolic Blood Pressure Per Group", "setting": "50 mg/kg per day for 5 days, Day 8 am, pre-drug 215", "value": 207, "unit": "mmHg"}, {"measurement": "Average Systolic Blood Pressure Per Group", "setting": "100 mg/kg per day for 5 days, Day 1 pm, pre-drug 218, p<.05", "value": 176, "unit": "mmHg"}, {"measurement": "Average Systolic Blood Pressure Per Group", "setting": "100 mg/kg per day for 5 days, Day 2 am, pre-drug 218, p<.05", "value": 185, "unit": "mmHg"}, {"measurement": "Average Systolic Blood Pressure Per Group", "setting": "100 mg/kg per day for 5 days, Day 2 pm, pre-drug 218, p<.05", "value": 142, "unit": "mmHg"}, {"measurement": "Average Systolic Blood Pressure Per Group", "setting": "100 mg/kg per day for 5 days, Day 3 am, pre-drug 218, p<.05", "value": 128, "unit": "mmHg"}, {"measurement": "Average Systolic Blood Pressure Per Group", "setting": "100 mg/kg per day for 5 days, Day 3 pm, pre-drug 218, p<.05", "value": 123, "unit": "mmHg"}, {"measurement": "Average Systolic Blood Pressure Per Group", "setting": "100 mg/kg per day for 5 days, Day 4 am, pre-drug 218, p<.05", "value": 113, "unit": "mmHg"}, {"measurement": "Average Systolic Blood Pressure Per Group", "setting": "100 mg/kg per day for 5 days, Day 4 pm, pre-drug 218, p<.05", "value": 131, "unit": "mmHg"}, {"measurement": "Average Systolic Blood Pressure Per Group", "setting": "100 mg/kg per day for 5 days, Day 5 pm, pre-drug 218, p<.05", "value": 108, "unit": "mmHg"}]}]}
